The values below come from patent US7910621B2, “Small molecule antagonists of XIAP family proteins” (The Regents of the University of Michigan, priority 2004, dated 2011).

Assay [1] concerns PC-3 prostate cancer cells. Nature of the assay: Annexin V-FITC apoptosis assay by flow cytometry, PC-3. The class given is cell-based, human. The settings on record: 48 hours. The method, then:
FIG. 6 presents induction of apoptosis by embelin in PC-3 prostate cancer cells. 1×10^6 PC-3 cells per well in 6-well culture plates were treated with embelin for 48 hours, stained with Annexin V-FITC and propidium iodide for apoptosis by flow cytometry. The results are shown as percent of Annexin V-FITC positive apoptotic cells (n=3).
(§1) PC-3 cells, 1×10^6 cells per well in 6-well culture plates, were treated in triplicate with various concentrations of embelin for 24 or 48 hours, then trypsinized and washed with PBS. For Jurkat cells, 1×10^6 Jurkat-XIAP or Jurkat-Vec cells per well in 6-well culture plates, were treated with etoposide, embelin, or both for 15 hours. For flow cytometry apoptosis assay, cells were stained with Annexin V-FITC and propidium iodide using the Annexin-V-FLUOS Kit (Roche) according to the manufacturer's instruction. The fluorescence of Annexin V-FITC and propidium iodide of individual cells was analyzed by FACScan. The results are shown as percent of Annexin V-FITC positive apoptotic cells.

The test system of assay [2] is normal human prostate epithelial cells (PrEC). As to the kind of experiment: WST-1 cell growth inhibition assay, PrEC. The settings on record: 120 h, WST-1, five days. The class given is cell-based. How it is done:
(§2) FIG. 5 presents inhibition of cell growth by embelin in prostate cancer cells (PC-3 and LnCap) and its selectivity in normal human prostate epithelial cells (PrEC) and normal human fibroblast cell line, WI-38. 5000 cells per well in a 96-well cell culture plate were treated with various concentrations of embelin in triplicate. Five days later, the cell growth was measured by the WST-1 cell growth assay kit […] The cell growth results are expressed as the percent of control and calculated from the percent of absorbance of treated wells versus that of vehicle control.
(§3) Human prostate cancer cell lines (PC-3, LNCap, CL-1, DU-145), and normal human fibroblast cell line WI-38 were obtained from the American Type Culture Collection (ATCC), were grown and maintained in Dulbecco's modified Eagle's medium (DMEM) containing 10% FBS (Invitrogen Corporation). Normal human prostate epithelial cells (PrEC) were obtained from Clonetics (Cambrex Inc., MD) and maintained in the special medium provided by the company. […]
(§4) Cell growth was determined by the MTT-based assay using Cell Proliferation Reagent WST-1 (Roche) according to the manufacturer's instruction. […] Absorbance was measured with a plate reader at […] with correction at […]. The results are expressed as the percent of absorbance of treated wells versus that of vehicle control.

Assay [3] has as its system Jurkat-XIAP cells. As to the kind of experiment: Annexin V-FITC apoptosis assay, Jurkat-XIAP. Format: cell-based. The settings on record: combination with etoposide, 15 hours. The method, then: FIGS. 8A and 8B present (A): Dose-dependent induction of apoptosis by etoposide in Jurkat cells transfected with vector control (Jurkat-Vec) and stably transfected with XIAP (Jurkat-XIAP cells); and (B): Induction of apoptosis by etoposide and embelin alone and in combination in Jurkat-Vec and Jurkat-XIAP cells. 1×10^6 Jurkat-XIAP or Jurkat-Vec cells per well in 6-well culture plates were treated with etoposide and embelin alone, or in combination for 15 hours, then stained with Annexin V-FITC and propidium iodide for apoptosis by flow cytometry. The results are shown as percent of Annexin V-FITC positive apoptotic cells.
as §1

Assay [4] concerns caspase-9 in PC-3 cells. As to the kind of experiment: Activation of caspase-9 assay, PC-3. Format: cell-based, human. The settings on record: for increase in activated caspase-9 as compared to vehicle treated control cells / PC-3 cells positively stained for activated caspase-9: 42 hrs; for PC-3 cells positively stained for activated caspase-9: vehicle control 3.1%. How it is done:
FIGS. 7A and 7B show the activation of caspase-9 by embelin in PC-3 prostate cancer cells and its selectivity in normal prostate epithelial cells. 1×10^6 PC-3 or PrEC cells per well in 6-well culture plates were treated with embelin for 48 hours. […] The cells were collected and stained of active caspase-9 by CaspGLOW Red Active Caspase-9 Staining Kit, and analyzed by flow cytometry in PI channel.
1×10^6 PC-3 cells per well in 6-well culture plates, were treated with various concentrations of embelin, or the same amount of solvent DMSO as vehicle control, for up to 48 hr. […] The cells were collected for staining of active caspase-9 by CaspGLOW Red Active Caspase-9 Staining Kit (BioVision, Inc., Mountain View, Calif.) according to the manufacturer's instructions, with modification. Briefly, to each tube containing 1×10^6 treated or control cells in 0.3 ml complete culture medium was added 1 μl of Red-LEHD-FMK and incubated for 0.5 hr at 37° C. incubator with 5% CO2. For double staining with Annexin V-FITC, the cells were spun down and resuspended in 100 μl Binding Buffer containing 1× Annexin V-FITC from the Annexin-V-FLUOS Kit (Roche) and incubated at room temperature for 10 min. The cells were then washed two times with Wash Buffer from the Active Caspase-9 Staining Kit. The cells were resuspended in 0.3 ml Binding Buffer and analyzed by flow cytometry, using PI channel for active caspase-9 and FITC channel for apoptosis.
The active caspase-9 and Annexin V double stained cells were also observed under Zeiss Laser Scanning Confocal Microscope LSM 510 Meta, using the fluorescent filter sets for rhodamine (Red) and FITC (green) channels. Early apoptotic cells show green fluorescence on the cell membrane while caspase-9 positive cells show bright red staining in the cytoplasm. Photos were taken at original magnification of 630×.

For assay [5], the system named is PC-3 prostate cancer cells. As to the kind of experiment: WST-1 cell growth inhibition assay, PC-3. Format: cell-based. The settings on record: Homo sapiens, 120 h; PC-3, WST-1, five days. The method, then: as §2, §3, §4
(Formazan colour is commonly taken as a measure of viable cells.)

Assay [6] concerns methylcholanthrene-induced fibrosarcoma. The settings on record: methylcholanthrene-induced fibrosarcoma in albino rats (Chitra et al. 1994); cited from earlier work.

One may read the IC50 as the concentration that inhibits the measured activity by half. Turning to `CCCCCCCCCCCC1=C(O)C(=O)C=C(O)C1=O` [embelin], the “PC-3 cells that underwent apoptosis (Annexin V-FITC positive)” value came out at 30% in assay [1] (25 μM) and 75% in assay [1] (50 μM). Moreover, the “increase in apoptosis as compared to control cells” value in assay [1] (25 μM) was “approximately 3 fold”; in assay [1] (50 μM) it was ~9 fold. Further, the IC50 in assay [2] was determined as 20.1 µM; in assay [5], 3.7 µM. Also, in assay [3], the “percentage of apoptotic cells in combination, compared to either drug alone” value is given as “significantly increased”. Moreover, the “increase in activated caspase-9 as compared to vehicle treated control cells” value in assay [4] (20 μM) stood at 10 fold; in assay [4] (40 μM), 20 fold. The “PC-3 cells positively stained for activated caspase-9” value in assay [4] (20 μM) came out at 33.0%; in assay [4] (40 μM) it was 62.1%. For the same compound, the “activation of caspase-9 in PC-3 cells” value in assay [4] (in words) is listed as “effectively activates caspase-9 in a dose-dependant manner”. In addition, in assay [6], the antitumor activity entry is recorded as “significant antitumor activity”.
